This note sets out measurements from paper PMC12645137 (Current Neuropharmacology, 2025).

For orientation: IC50 means the midpoint of a concentration-inhibition curve. Broadly, the inhibition is the change of the read-out against control, counted positive when it falls.

The nature of test [1]: DPPH antioxidant assay. The test is classed as physicochemical. The following applies: for % Inhibition (DPPH free radicals): mean ± SEM. The procedure: To evaluate the in-vitro antioxidant potential of the synthesized derivatives, a previously reported 1,1 Diphenyl, 2 Picrylhydrazyl (DPPH) assay was utilized. The DPPH solution was prepared by dissolving twenty-four mg DPPH in methanol (100 ml). Test sample solutions in various concentrations (62.50 to 1000 μg/mL) were also prepared. From each dilution, 1 ml sample solution was taken to which 1 ml solution of DPPH was added. The solution mixture was incubated at 23°C for 30 minutes in the dark and then subjected to a UV-visible spectrophotometer to note the absorbance at 517 nm. The absorbance values of all samples were taken in triplicate. Ascorbic acid served as positive control, while negative control only contained a solution of DPPH having no test samples. The % free radical scavenging potential of our compounds was determined by the given formula.
% free radical scavenging activity = [drawing 2] x100
X is the control absorbance, whereas X1 is the absorbance of the test sample.
On the technique in general: Loss of DPPH colour is used to gauge radical scavenging.

Test [2] has as its target T1, BChE (source equine serum) (Equus caballus, UniProt P81908).
T1 construct: from tissue; host or cells: equine serum
In words: biochemical. The conditions noted are these: for inhibition at 62.5 µg/mL / inhibition at 125 µg/mL / inhibition at 250 µg/mL / inhibition at 500 µg/mL / inhibition at 1000 µg/mL: read-out: % BChE Inhibition. How it is done:
(§1) The cholinesterase inhibitory potentials of our synthesized compounds were evaluated against cholinesterase enzymes (AChE/BChE). The AChE (source Electric eel) and BChE (source equine serum) were used in the study following previously published Ellman's assay. The assay basic principle involves the hydrolytic breakdown of acetylthiocholine iodide (ATChI) by AChE and butyryl thiocholine iodide (BTChI) by BChE enzymes, leading to the formation of an intermediate compound which is subsequently complexed with 5,5-dithio bis nitrobenzoic acid (DTNB) to form a UV-detectable compound. The yellowish color product indicates the hydrolysis of ATChI and BTChI substrates by respective enzymes, which were analyzed at 412 nm using a UV-visible spectrophotometer. […] A test sample of 1000 µl was taken in a cuvette, to which enzyme solution (50 µl) and DTNB reagent of 50 µL were added. The AChE (0.03 U/ml) and BChE (0.01 U/ml) solutions were prepared in 0.1 M phosphate buffer having pH 8.0. The ATChI and BTChI substrate solutions (0.0005 M) and 0.0002273 M solution of DTNB were prepared using distilled water and stored at 8°C before further use. For 15 minutes, the solution mixture was incubated at 30 °C, after which a solution of the substrate (50 µl) was added and then subjected to spectroscopic analysis. Using a double beam spectrophotometer, the sample absorbance was measured for 4 minutes at 412 nm beside the time of reaction. […] All values were taken in triplicate under the same conditions.
(§2) Enzymatic activity percentage=V/Vmaxx100
(§3) V is the reaction rate in the inhibitor's presence, whereas Vmax is the reaction rate in the absence of the inhibitor.

The target in test [3] is T2, AChE (source Electric eel) (Electrophorus electricus, UniProt O42275).
T2 construct: from tissue
T2 sequence (O42275 24-633): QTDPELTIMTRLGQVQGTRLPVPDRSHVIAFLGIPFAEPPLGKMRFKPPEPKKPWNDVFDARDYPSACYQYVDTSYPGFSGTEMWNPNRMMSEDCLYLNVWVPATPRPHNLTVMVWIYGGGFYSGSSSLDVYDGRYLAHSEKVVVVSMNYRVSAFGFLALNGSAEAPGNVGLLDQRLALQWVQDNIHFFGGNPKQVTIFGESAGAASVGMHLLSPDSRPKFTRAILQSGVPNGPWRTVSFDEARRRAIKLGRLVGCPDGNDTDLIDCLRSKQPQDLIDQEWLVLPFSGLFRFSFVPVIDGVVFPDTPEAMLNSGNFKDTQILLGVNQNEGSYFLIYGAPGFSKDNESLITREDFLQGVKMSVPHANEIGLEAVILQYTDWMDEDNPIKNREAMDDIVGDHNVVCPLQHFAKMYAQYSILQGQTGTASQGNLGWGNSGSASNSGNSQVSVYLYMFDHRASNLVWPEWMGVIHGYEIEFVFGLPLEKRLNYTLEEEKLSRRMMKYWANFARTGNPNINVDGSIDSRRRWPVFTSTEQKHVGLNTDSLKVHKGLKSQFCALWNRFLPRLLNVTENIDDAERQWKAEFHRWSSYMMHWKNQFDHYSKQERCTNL
The test is described as follows: biochemical. The conditions noted are these: for inhibition at 62.5 µg/mL / inhibition at 125 µg/mL / inhibition at 250 µg/mL / inhibition at 500 µg/mL / inhibition at 1000 µg/mL: read-out: % AChE Inhibition. How it is done: as §1, §2, §3

T1 sequence (P81908 whole entry): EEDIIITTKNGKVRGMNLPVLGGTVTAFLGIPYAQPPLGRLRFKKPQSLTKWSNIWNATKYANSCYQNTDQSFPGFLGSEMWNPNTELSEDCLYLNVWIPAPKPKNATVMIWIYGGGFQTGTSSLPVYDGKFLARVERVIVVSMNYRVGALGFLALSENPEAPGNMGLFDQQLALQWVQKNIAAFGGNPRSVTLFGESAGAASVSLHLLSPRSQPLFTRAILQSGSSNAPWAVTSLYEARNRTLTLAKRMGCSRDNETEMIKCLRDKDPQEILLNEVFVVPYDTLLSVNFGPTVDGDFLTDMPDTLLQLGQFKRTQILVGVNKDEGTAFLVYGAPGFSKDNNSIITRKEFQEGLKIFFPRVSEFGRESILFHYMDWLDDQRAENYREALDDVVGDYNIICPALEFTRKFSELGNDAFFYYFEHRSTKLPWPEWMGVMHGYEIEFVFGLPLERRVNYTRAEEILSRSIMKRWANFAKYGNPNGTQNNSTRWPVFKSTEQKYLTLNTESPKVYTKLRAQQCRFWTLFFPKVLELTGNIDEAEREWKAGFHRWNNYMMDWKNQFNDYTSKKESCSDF

As to `C/C(=N/Cc1ccc(C)cc1)[C@H]1CC[C@H]2[C@@H]3CCC4=CC(=O)CC[C@]4(C)[C@H]3CC[C@]12C` [AN2, (8S,9S,10R,13S,14S)-17-((Z)-1-((4-methylbenzyl)imino)ethyl)-10,13-dimethyl-1,2,6,7,8,9,10,11,12,13,14,15,16,17-tetradecahydro-3H-cyc-lopenta[a]phenanthren-3-one], the values for the IC50 in test [1], in test [2] and in test [3] were 62.5 µM, 138 µM and 173 µM, respectively. In addition, the “% Inhibition (DPPH free radicals)” value in test [1] (62.5 µg/ml) is reported as 55.65 ± 2.44%; in test [1] (125 µg/ml), 57.44 ± 2.47%; in test [1] (250 µg/ml), 65.77 ± 3.32%; in test [1] (500 µg/ml) it was 66.26 ± 1.60%; in test [1] (1000 µg/ml), 71.47 ± 1.83%. For the same compound, the inhibition at 62.5 µg/mL in test [2] is 50.8%; in test [3], 48.3%. Further, the inhibition at 125 µg/mL in test [2] was 52.9%; in test [3], 57.4%. The inhibition at 250 µg/mL is 74.1% in test [2] and 64.3% in test [3]. Further, the inhibition at 500 µg/mL is 72% in test [2] and 75.7 ± 1.26% in test [3]. The inhibition at 1000 µg/mL came to 77.5 ± 1.29% in test [2] and 75.7 ± 2.82% in test [3].

Take `COc1ccc(C/N=C(/C)[C@H]2CC[C@H]3[C@@H]4CCC5=CC(=O)CC[C@]5(C)[C@H]4CC[C@]23C)cc1OC` [AN3, (8S,9S,10R,13S,14S,17S)-17-((Z)-1-((3,4-dimethoxybenzyl)imino)ethyl)-10,13-dimethyl-1,2,6,7,8,9,10,11,12,13,14,15,16,17-tetradecahydro-3H-cyclo-penta[a]phenanthren-3-one]: the IC50 in test [1] was determined as 86.4 µM; in test [2], 112 µM; in test [3], 133 µM. Besides, the “% Inhibition (DPPH free radicals)” value in test [1] (62.5 µg/ml) is given as 54.18 ± 2.16%; in test [1] (125 µg/ml), 56.86 ± 2.33%; in test [1] (250 µg/ml), 61.18 ± 2.23%; in test [1] (500 µg/ml), 66.44 ± 2.58%; in test [1] (1000 µg/ml) it was 72.32 ± 1.37%. Further, the inhibition at 62.5 µg/mL in test [2] is 55.5%; in test [3], 50.7%. Besides, the inhibition at 125 µg/mL in test [2] was 59.9%; in test [3], 62.9%. For the same compound, the inhibition at 250 µg/mL was 64.3% in test [2] and 64.6% in test [3]. For the same compound, the inhibition at 500 µg/mL in test [2] was 81.8%; in test [3] it was 78.2%. Also, the inhibition at 1000 µg/mL in test [2] turned out to be 87.9 ± 1.96%; in test [3], 82.8 ± 2.02%.

Take `C/C(=N/Cc1ccc(Cl)cc1)[C@H]1CC[C@H]2[C@@H]3CCC4=CC(=O)CC[C@]4(C)[C@H]3CC[C@]12C` [AN4, (8S,9S,10R,13S,14S,17S)-17-((Z)-1-((4-chlorobenzyl)imino)ethyl)-10,13-dimethyl-1,2,6,7,8,9,10,11,12,13,14,15,16,17-tetradecahydro-3H-cyclopenta [a]phenanthren-3-one]: the results for the IC50 in test [1], in test [2] and in test [3] were 188 µM, 149 µM and 213 µM, respectively. Besides, the “% Inhibition (DPPH free radicals)” value in test [1] (62.5 µg/ml) was found to be 46.88 ± 0.65%; in test [1] (125 µg/ml) it was 55.52 ± 3.43%; in test [1] (250 µg/ml), 60.69 ± 1.92%; in test [1] (500 µg/ml), 66.80 ± 3.47%; in test [1] (1000 µg/ml), 69.87 ± 2.81%. For the same compound, the inhibition at 62.5 µg/mL is 49.5% in test [2] and 47% in test [3]. Further, the inhibition at 125 µg/mL was 56.9% in test [2] and 52.7% in test [3]. Further, the inhibition at 250 µg/mL was 63.1% in test [2] and 60.3% in test [3]. Also, the values for the inhibition at 500 µg/mL in test [2] and in test [3] were 64.7% and 67.7%, respectively. The figures for the inhibition at 1000 µg/mL in test [2] and in test [3] were 76.3 ± 1.56% and 70 ± 2.26%, respectively.

For the compound `C/C(=N/Cc1ccccc1)[C@H]1CC[C@H]2[C@@H]3CCC4=CC(=O)CC[C@]4(C)[C@H]3CC[C@]12C` [AN5, (8S,9S,10R,13S,14S)-17-((Z)-1-(benzylimino)ethyl)-10,13-dimethyl-1,2,6,7,8,9,10,11, 12,13,14,15,16,17-tetradecahydro-3H cyclopenta[a]phenan-thren-3-one], the results for the IC50 in test [1], in test [2] and in test [3] were 110 µM, 63 µM and 156 µM, respectively. The “% Inhibition (DPPH free radicals)” value in test [1] (62.5 µg/ml) is 52.18 ± 1.42%; in test [1] (125 µg/ml), 56.99 ± 2.50%; in test [1] (250 µg/ml) it was 65.46 ± 1.83%; in test [1] (500 µg/ml), 67.51 ± 2.56%; in test [1] (1000 µg/ml), 73.12 ± 1.04%. The inhibition at 62.5 µg/mL was 58.1% in test [2] and 50.4% in test [3]. Also, the inhibition at 125 µg/mL was 65.9% in test [2] and 59.7% in test [3]. Moreover, the inhibition at 250 µg/mL is 71.4% in test [2] and 65.2% in test [3]. Also, the inhibition at 500 µg/mL was 75.8% in test [2] and 77.3% in test [3]. Moreover, the results for the inhibition at 1000 µg/mL in test [2] and in test [3] were 85.5 ± 2.83% and 83.5 ± 2.31%, respectively.

Turning to `O=C1O[C@H]([C@@H](O)CO)C(O)=C1O` [Ascorbic Acid, Ascorbic acid, reference compound], in test [1], half-maximal inhibition (IC50) required 54.1 µM. Further, the “% Inhibition (DPPH free radicals)” value in test [1] (62.5 µg/ml) was determined as 67.69 ± 2.18%; in test [1] (125 µg/ml) it was 71.25 ± 4.29%; in test [1] (250 µg/ml), 74.50 ± 3.04%; in test [1] (500 µg/ml), 86.00 ± 0.70%; in test [1] (1000 µg/ml), 91.17 ± 1.62%.
